Earlier results, collected in patent US20220288358A1, “Drug-Coated Balloon Controllable In Drug Metabolism And Preparation Method Therefor” (Shanghai HeartCare Medical Technology Corporation Limited, priority 2019, published 2022).
“Also recorded” adds a separate entry of the source.

Molecular target: FKBP12 protein (Homo sapiens, UniProt P62942)
Details: rank order from strong to weak; stated without data

Chain of FKBP12 protein (P62942 whole entry, species assumed): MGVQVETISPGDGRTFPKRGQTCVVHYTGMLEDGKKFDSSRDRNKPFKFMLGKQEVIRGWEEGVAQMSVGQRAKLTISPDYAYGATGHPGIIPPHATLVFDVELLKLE

SMILES	ability to bind FKBP12 protein
Cc1ccc(S(=O)(=O)N2CCSC[C@H]2C(=O)N[C@@H](Cc2ccccc2)C(=O)OCc2ccccc2)cc1 [drug c, (3R)-4-(p-Toluenesulfonyl)-1,4-thiazane-3-carboxylic acid-L-phenylalanine benzyl ester]	stronger than that of drug a; also recorded: from strong to weak is drug c, drug b, and drug a
CCC(C)(C)C(=O)C(=O)N1CCC[C@H]1C(=O)OCCCc1cccnc1 [drug a, 3-pyridin-3-ylpropyl-(2 S)-1-(3,3-dimethyl-2-oxo-pentanoyl)-pyrrolidine-2-carboxylate]	from strong to weak is drug c, drug b, and drug a
CCOC(=O)[C@H](CC(C)C)NC(=O)[C@@H]1CSCCN1S(=O)(=O)c1ccc(C)cc1 [drug b, (3R)-4-(p-Toluenesulfonyl)-1,4-thiazane-3-carboxylicacid-L-leucine ethyl ester]	from strong to weak is drug c, drug b, and drug a
